Reference: paper PMC8277899, “A novel RyR1-selective inhibitor prevents and rescues sudden death in mouse models of malignant hyperthermia and heat stroke” (Nature Communications, 2021)
≈ marks a conversion by molar mass, not a printed value. Counter-ions that a name gives are not always drawn.

Experiments:
RyR1 channel = system: RyR1 channel; design: method as in PMID 31299492; conditions: HEK293 cell-based assay; read-out: IC50 for inhibiting the RyR1 channel; cited from earlier work
[1] = Thermodynamic solubility in solutions for injection; conditions: 25 °C; for solubility at 48 h: thermodynamic from solid
[2] = cited from earlier work

In the case of CCn1cc(C(=O)O)c(=O)c2cc3c(cc21)OCO3 [oxolinic acid, reference compound], the IC50 (RyR1 channel) is listed as 810 nM.
In the case of O=C1CN(/N=C/c2ccc(-c3ccc([N+](=O)[O-])cc3)o2)C(O)=N1 [dantrolene], the solubility at 48 h ([1]; normal saline (0.9% NaCl), saline or isotonic) is listed as 25.7 ± 2.1 µg/mL (≈ 81.8 µM), the “plasma half-life (t1/2)” value [2] is listed as 12 h and the plasma half-life ([2]; in humans after intravenous injection) is listed as 10 to 12 h.
For CCCCCCCCn1cc(C(=O)O)c(=O)c2cc3c(cc21)OCO3 [Cpd1 sodium salt], the solubility at 48 h ([1]; 5% glucose aqueous solution, saline or isotonic) was 351 ± 14 µg/mL, the Solubility ([1]; Normal saline (0.9% NaCl), 48 h) was 849 ± 58 (4) µg/mL and the solubility at 48 h ([1]; pure water, water) was 1360 ± 220 µg/mL.
